Structures can show the parent of a compound that is named as a salt. Active and inactive are the calls of the source. For most assays here, no stated cut-off is given here; in the data, actives have a measured EC50 and inactives only a lower limit.
Experiments:
[1] = biological target: T1, RNA-binding protein pos-1 (Caenorhabditis elegans, UniProt G5EF15); assay: inhibitors of POS-1/mex-3 RNA binding, dose response, biochemical, fluorescence polarization (AID 1964);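 further: purified POS-1 fused to maltose binding protein made in E. coli; potency of compounds blocking POS-1 binding to fluorescent RNA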
T1 sequence (G5EF15 whole entry): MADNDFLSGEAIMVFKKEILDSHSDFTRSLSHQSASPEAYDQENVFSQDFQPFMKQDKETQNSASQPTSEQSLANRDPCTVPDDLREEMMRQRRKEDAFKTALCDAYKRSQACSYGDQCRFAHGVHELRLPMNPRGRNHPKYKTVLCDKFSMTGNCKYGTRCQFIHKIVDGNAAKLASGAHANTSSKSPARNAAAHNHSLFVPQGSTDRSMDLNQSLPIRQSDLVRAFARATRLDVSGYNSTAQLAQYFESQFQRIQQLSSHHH

[2] = biological target: T2, Zinc finger protein mex-5 (Caenorhabditis elegans, UniProt Q9XUB2); assay: MEX-5/TCR-2 RNA interaction inhibitors, dose response, biochemical, C. elegans, fluorescence polarization (AID 1960)
T2 sequence (Q9XUB2 whole entry): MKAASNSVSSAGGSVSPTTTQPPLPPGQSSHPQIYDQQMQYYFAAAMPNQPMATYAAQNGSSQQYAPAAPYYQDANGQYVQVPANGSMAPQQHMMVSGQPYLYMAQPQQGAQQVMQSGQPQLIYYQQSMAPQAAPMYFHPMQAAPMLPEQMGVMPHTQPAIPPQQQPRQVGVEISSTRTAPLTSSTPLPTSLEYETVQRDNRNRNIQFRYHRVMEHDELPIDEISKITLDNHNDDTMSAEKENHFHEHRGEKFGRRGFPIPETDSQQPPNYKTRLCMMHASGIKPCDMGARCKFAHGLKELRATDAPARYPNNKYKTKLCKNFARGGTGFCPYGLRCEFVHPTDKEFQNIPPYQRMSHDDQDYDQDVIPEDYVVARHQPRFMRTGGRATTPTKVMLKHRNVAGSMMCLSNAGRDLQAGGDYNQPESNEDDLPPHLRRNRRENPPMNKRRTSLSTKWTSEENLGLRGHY

[3] = HEp-2 cell cytotoxicity, dose response, cytotoxicity control for RSV inhibitor project, HTS (AID 2410); format: functional; settings: human respiratory syncytial virus
[4] = Luminescence Cell-Based Dose Retest to Confirm Inhibitors of Cancer Stem Cells. [Related pubchem assays (depositor defined):AID2717, AID2721]; format: functional; settings: Homo sapiens
[5] = biological target: T3, Corticotropin-releasing factor receptor 2/Corticotropin-releasing factor-binding protein (Homo sapiens, UniProt P24387+Q13324); assay: Dose Response confirmation of uHTS hits for small molecule antagonists of the CRF-binding protein and CRF-R2 receptor complex.; format: functional; settings: read-out: IC50_Mean
T3 sequence (Q13324 whole entry): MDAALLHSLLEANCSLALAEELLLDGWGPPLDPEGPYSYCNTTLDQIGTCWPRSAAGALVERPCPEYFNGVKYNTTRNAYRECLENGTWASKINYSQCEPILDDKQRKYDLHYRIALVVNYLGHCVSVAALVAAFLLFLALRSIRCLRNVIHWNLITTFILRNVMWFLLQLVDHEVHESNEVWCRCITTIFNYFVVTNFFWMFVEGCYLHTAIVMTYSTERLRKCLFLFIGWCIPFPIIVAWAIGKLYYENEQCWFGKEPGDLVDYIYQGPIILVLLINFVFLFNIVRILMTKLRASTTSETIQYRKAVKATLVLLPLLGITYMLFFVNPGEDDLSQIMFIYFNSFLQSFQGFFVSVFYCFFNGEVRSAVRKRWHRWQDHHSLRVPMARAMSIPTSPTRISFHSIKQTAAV
T3 sequence (P24387 whole entry): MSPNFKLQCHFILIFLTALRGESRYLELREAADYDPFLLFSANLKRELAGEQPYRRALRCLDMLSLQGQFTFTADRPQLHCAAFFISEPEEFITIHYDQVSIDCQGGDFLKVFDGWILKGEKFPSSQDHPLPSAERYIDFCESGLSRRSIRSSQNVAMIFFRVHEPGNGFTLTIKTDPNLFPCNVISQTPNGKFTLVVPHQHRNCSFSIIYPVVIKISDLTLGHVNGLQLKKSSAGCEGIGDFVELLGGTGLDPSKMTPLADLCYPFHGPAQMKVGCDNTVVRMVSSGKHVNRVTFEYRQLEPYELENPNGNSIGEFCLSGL

[6] = biological target: T3, Corticotropin-releasing factor receptor 2/Corticotropin-releasing factor-binding protein; assay: activators of CRF receptor 2 with binding protein – uHTS hits, confirmation (AID 602473); format: functional; settings: read-out: EC50_Mean
[7] = NIH-3T3 fibroblast cytotoxicity, dose response, cytotoxicity control, cell-based, fluorescence, Alamar Blue, secondary assay (AID 2327); format: functional;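 further: NIH-3T3 mouse fibroblasts cultured with fluconazole at 8 µg/mL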
[8] = C. albicans growth with fluconazole, confirmation, fluorescence, retest (AID 2467); format: functional, cell-based
[9] = biological target: T4, Heat shock factor protein 1 (Mus musculus, UniProt P38532); assay: HSF1 potentiators in luciferase reporter cells, confirmation, cell-based, NIH3T3, luminescence, dose retest (AID 435004); format: functional;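 further: stress induced by proteasome inhibitor MG132 added 30 min after compound; luciferase reporter driven by HSF1 response element in NIH3T3 cells; actives raise luminescence as potentiators of the MG132 stress response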
T4 sequence (P38532 whole entry): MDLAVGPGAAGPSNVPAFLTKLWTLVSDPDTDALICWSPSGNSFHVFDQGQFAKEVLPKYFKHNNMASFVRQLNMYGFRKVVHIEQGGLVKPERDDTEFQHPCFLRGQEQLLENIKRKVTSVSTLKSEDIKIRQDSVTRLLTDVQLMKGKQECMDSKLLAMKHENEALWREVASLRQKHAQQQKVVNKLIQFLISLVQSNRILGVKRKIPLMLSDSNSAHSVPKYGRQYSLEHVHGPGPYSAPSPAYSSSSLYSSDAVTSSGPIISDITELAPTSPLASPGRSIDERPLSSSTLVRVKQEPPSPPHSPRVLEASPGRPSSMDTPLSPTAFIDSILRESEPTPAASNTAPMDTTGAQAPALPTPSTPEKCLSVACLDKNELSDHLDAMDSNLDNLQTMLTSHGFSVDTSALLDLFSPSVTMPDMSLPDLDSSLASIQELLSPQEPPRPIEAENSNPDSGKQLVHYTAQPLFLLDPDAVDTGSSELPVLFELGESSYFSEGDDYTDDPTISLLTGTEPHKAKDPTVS

[10] = biological target: FAD-linked sulfhydryl oxidase ALR (Homo sapiens, UniProt P55789); assay: inhibitors of human ALR sulfhydryl oxidase, dose response, biochemical, H2O2 detection, luminescence, cherry-pick (AID 493248)
Sequence of FAD-linked sulfhydryl oxidase ALR (P55789 whole entry): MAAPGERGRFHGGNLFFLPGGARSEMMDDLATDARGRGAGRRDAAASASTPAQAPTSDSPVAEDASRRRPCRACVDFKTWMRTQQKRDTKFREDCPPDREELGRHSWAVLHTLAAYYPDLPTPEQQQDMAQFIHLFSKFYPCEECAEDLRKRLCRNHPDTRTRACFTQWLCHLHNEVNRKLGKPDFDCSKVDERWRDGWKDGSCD

[11] = inhibitors of firefly luciferase expression or activity, dose response, H4 neuroglioma cells, luminescence (AID 1990); format: functional, cell-based
[12] = Luminescence Cell-Based Dose Response HTS to Identify Inhibitors of 5'UTR Stem-Loop Driven Prion Protein mRNA Translation in H4 Neuroglioblastoma Cells. [Related pubchem assays: 1827 (Project Summary), 1813 (Primary HTS)]; format: functional
[13] = inhibitors of SNCA 5'UTR-driven reporter translation, confirmation, H4 neuroglioma cells, luminescence (AID 1988); format: functional, cell-based
[14] = test system: Streptococcus sp. 'group A'; assay: growth inhibition of control SK(-) GAS strain, dose response, counter-screen for streptokinase expression inhibitor project, luminescence, kanamycin, BacTiterGlo, confirmation (AID 1900); format: functional, organism-based
[15] = biological target: T5, Streptokinase A (Streptococcus pyogenes serotype M1, UniProt P10520); assay: S. pyogenes streptokinase expression inhibitors, potency, dose response, plasminogen activation absorbance, OD405 (AID 1914); format: functional, Streptococcus pyogenes M1 GAS;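 further: secreted streptokinase activity via plasminogen activation per viability signal from cell pellet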
T5 sequence (P10520 whole entry): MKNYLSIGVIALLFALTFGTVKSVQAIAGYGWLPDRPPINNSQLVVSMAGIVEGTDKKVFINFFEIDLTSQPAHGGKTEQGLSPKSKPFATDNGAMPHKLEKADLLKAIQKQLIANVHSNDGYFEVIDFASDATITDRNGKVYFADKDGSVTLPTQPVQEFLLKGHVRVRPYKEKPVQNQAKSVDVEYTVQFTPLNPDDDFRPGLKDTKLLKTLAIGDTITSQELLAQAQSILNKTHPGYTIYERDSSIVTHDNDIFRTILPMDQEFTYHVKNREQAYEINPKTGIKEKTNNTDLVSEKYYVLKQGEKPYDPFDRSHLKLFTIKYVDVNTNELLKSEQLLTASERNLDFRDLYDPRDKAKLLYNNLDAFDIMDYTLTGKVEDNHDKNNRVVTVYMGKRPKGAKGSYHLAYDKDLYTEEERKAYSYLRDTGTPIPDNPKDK

[16] = test system: Streptococcus; assay: Group A Streptococcus viability loss, dose response, counter-screen for streptokinase expression inhibitor project, luminescence, BacTiterGlo (AID 1915); format: functional, organism-based;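 further: potency for reduction of bacterial viability or growth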

## Cc1nc(/C=C2\C(=O)Nc3ccccc32)c[nH]1
[1]
  EC50: > 300 µM (not active)
[2]
  EC50: > 300 µM (not active)

## Cn1ccc(/C=N/NC2=NC(=O)CS2)n1
[3]
  CC50: 24.5 µM (active)

## NC(=O)c1ccc(NC(=O)COC(=O)c2c3c(nc4ccccc24)/C(=C\c2cccs2)CCC3)cc1
[4]
  AC50: 10.4 µM (active)

## NC(=O)c1ccc2nc(-c3ccccc3)c(-c3ccccc3)nc2c1
[5]
  IC50: > 47.1 µM (inactive)
[6]
  EC50: > 53 µM (inactive)

## CC1=CC2=C(OC1N(C)C)c1cccc3cccc(c13)C2=O (stereo not given)
[7]
  EC50: > 150 µM (inactive)
[8]
  EC50: > 38 µM (not active)
[9]
  EC50: > 260 µM (inactive)

## N#Cc1ccsc1NC(=O)CN1CCN(S(=O)(=O)c2ccc3ccccc3c2)CC1
[9]
  EC50: > 260 µM (inactive)

## CN(CCOc1ccc(CC2SC(=O)NC2=O)cc1)c1ccccn1 (stereo not given) [ROSIGLITAZONE MALEATE]
[5]
  IC50: > 47.1 µM (inactive)
[6]
  EC50: > 53 µM (inactive)

## COc1ccc(CC(=O)ONC(=N)c2cccc([N+](=O)[O-])c2)cc1
[5]
  IC50: > 47.1 µM (inactive)
[6]
  EC50: > 53 µM (inactive)

## Cc1ccc(S(=O)(=O)Nc2cc(C(=O)Nc3cc(C)cc(C)c3)ccc2Cl)cc1
[5]
  IC50: > 47.1 µM (inactive)
[6]
  EC50: > 53 µM (inactive)

## Cc1cccc(/C=N/n2c(S)nnc2-c2ccccn2)c1
[10]
  AC50: 67.5 µM (active)

## O=c1c2c(O)cc(-c3ccccc3)nc2[nH]n1-c1ccccc1
[10]
  AC50: 3.54 µM (active)

## CCN(CC)c1ccc(CN(C(=O)c2cc(OC)c(OC)c(OC)c2)C2CCS(=O)(=O)C2)cc1 (stereo not given)
[10]
  AC50: 9.07 µM (active)

## Cc1occc1C(=O)N/N=C/C(Br)=C\c1ccccc1
[3]
  CC50: 22.4 µM (active)

## CCCCNC(=O)c1cn(CC)c2ccc(S(=O)(=O)N3CCCCCC3)cc2c1=O
[5]
  IC50: > 47.1 µM (inactive)
[6]
  EC50: > 53 µM (inactive)

## CCOC(=O)c1c(NC(=O)c2nn(CC)cc2Br)c(C#N)nn1-c1ccccc1
[11]
  EC50: 22.5 µM (active)
[12]
  EC50: > 120 µM (not active)
[13]
  EC50: > 120 µM (not active)
[9]
  EC50: > 260 µM (inactive)

## CCOc1ccc(S(=O)(=O)Nc2cccnc2)cc1
[5]
  IC50: > 47.1 µM (inactive)
[6]
  EC50: > 53 µM (inactive)

## C=CCn1c(S)nnc1Cc1cccc2ccccc12
[10]
  AC50: 23.3 µM (active)

## O=C(Cn1c(=O)sc2ccccc21)Nc1nc2c(s1)CCCC2
[3]
  CC50: > 50 µM (active)

## CN(C)c1c([N+](=O)[O-])cc2[nH]c(O)nc2c1[N+](=O)[O-]
[3]
  CC50: 24.7 µM (active)

## Cc1cc(C)n2nc(N)c(N=Nc3cccc(Cl)c3)c2n1
[9]
  EC50: > 260 µM (inactive)

## COc1ccnc(N2CCN(c3ccccc3)CC2)c1C#N
[7]
  EC50: > 160 µM (inactive)
[8]
  EC50: > 38 µM (not active)
[10]
  AC50: 1.27 µM (active)

## CCCCN(C)C(=O)C1CCC(CNS(=O)(=O)c2ccc3c(c2)CC(C)N3C(=O)C2CC2)CC1 (stereo not given)
[9]
  EC50: > 260 µM (inactive)

## CCOC(=O)c1c(C)[nH]c(C(=O)COC(=O)c2ccccc2NC(=O)c2ccco2)c1C
[3]
  CC50: > 50 µM (active)

## CCOC(=O)c1c(-c2cccc(Cl)c2)n[nH]c1N1C(=O)Nc2ccccc2N1O
[5]
  IC50: > 47.1 µM (inactive)
[6]
  EC50: > 53 µM (inactive)

## Nc1cc(=O)[nH]n1C1CCN(c2ccccc2)CC1
[10]
  AC50: 2.61 µM (active)

## CCN(CCNC(=O)CN1CCN(Cc2ccc(Cl)cc2)C1=O)c1ccccc1
[9]
  EC50: > 260 µM (inactive)

## COc1ccc2sc(-c3ccc(SC)cc3)c(C#CCO)c2c1
[4]
  AC50: 9.22 µM (active)

## CC(C)c1ccc(/C=C2\C(=N)N3N=C(CC(=O)N4CCCCC4)SC3=NC2=O)cc1
[10]
  AC50: 5.61 µM (active)

## O=S(=O)(NCC(c1ccco1)N1CCc2ccccc21)c1ccccc1 (stereo not given)
[10]
  AC50: 2.49 µM (active)

## COc1cc(/C=C/c2noc(-c3ccccc3O)n2)ccc1OC(C)=O
[4]
  AC50: 3.44 µM (active)

## C/C(=N\NC(=O)C1CC1)c1ccc(OC(F)F)cc1OC(F)F
[3]
  CC50: 30.8 µM (active)

## CCOC(=O)Cn1c2c(c(-c3ccccc3OC)cc1=O)CCCC2
[5]
  IC50: > 47.1 µM (inactive)
[6]
  EC50: > 53 µM (inactive)

## CCc1nc(SCC(=O)Nc2ccccc2OC)c2c(C)c(C)sc2n1
[3]
  CC50: 26 µM (active)
[14]
  EC50: 8.64 µM (active)
[15]
  EC50: > 150 µM (not active)
[16]
  EC50: > 150 µM (not active)

## COc1c2c(c(OC)c3ccccc13)[C@@]1(OC2)O[C@H](CCO)C[C@H](O)[C@H]1O
[5]
  IC50: > 47.1 µM (inactive)
[6]
  EC50: > 53 µM (inactive)

## Cc1ccccc1-n1c(-c2ccc(Cl)cc2)cnc1SCC(=O)NC1CCS(=O)(=O)C1 (stereo not given)
[9]
  EC50: > 260 µM (inactive)

## N#C/C(=C(/O)COc1ccc(Cl)cc1)c1nc2ccccc2s1
[7]
  EC50: 93.5 µM (active)
[8]
  EC50: 0.191 µM (active)
[5]
  IC50: < 0.368 µM (active)
[6]
  EC50: > 53 µM (inactive)

## CCCc1n[nH]c2c1C(c1cc(OC)ccc1F)C(C#N)=C(N)O2 (stereo not given)
[9]
  EC50: > 260 µM (inactive)

Source: ChEMBL document CHEMBL1201862, “PubChem BioAssay data set” (2004)
